Patent US8889874B2, “Imidazolone-chalcone derivatives as potential anticancer agent and process for the preparation thereof” (Council of Scientific and Industrial Research, priority 2010, dated 2014)
Like-named read-outs stand apart in the source and are kept apart here.

Legend:
Assay in all cases: NCI anticancer screen, SRB assay, 48 h
Type in all cases: cell-based, human
Conditions in all cases: Homo sapiens
MCF7 (breast) = system: MCF7 (breast)
Outline: (§1)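 Compounds were tested across fifty three human cancer cell lines from nine tumour types. Each line got a dose-response curve of at least five concentrations at 10-fold dilutions, with continuous drug exposure and sulforhodamine B protein staining to estimate viability or growth.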

MDA-MB-231/ATCC (breast) = system: MDA-MB-231/ATCC (breast)
Outline: as §1

UACC-257 (melanoma) = system: UACC-257 (melanoma)
Outline: as §1

SNB-75 (CNS) = system: SNB-75 (CNS)
Outline: as §1

OVCAR-4 (ovarian) = system: OVCAR-4 (ovarian)
Outline: as §1

HS 578T (breast) = system: HS 578T (breast)
Outline: as §1

CAKI-1 (renal) = system: CAKI-1 (renal)
Outline: as §1

HT29 (colon) = system: HT29 (colon)
Outline: as §1

HCT-116 (colon) = system: HCT-116 (colon)
Outline: as §1

[1] = system: A549/ATCC (non-small cell lung)
Outline: as §1

[2] = system: RPMI-8226 (leukemia cell line)
Outline: as §1

OVCAR-8 (ovarian) = system: OVCAR-8 (ovarian)
Outline: as §1

SW-620 (colon) = system: SW-620 (colon)
Outline: as §1

SK-OV-3 (ovarian) = system: SK-OV-3 (ovarian)
Outline: as §1

[3] = system: NCI-H226 (non-small cell lung)
Outline: as §1

A498 (renal) = system: A498 (renal)
Outline: as §1

MDA-MB-435 (melanoma) = system: MDA-MB-435 (melanoma)
Outline: as §1

OVCAR-3 (ovarian) = system: OVCAR-3 (ovarian)
Outline: as §1

TD-47D (breast) = system: TD-47D (breast)
Outline: as §1

[4] = system: NCI-H322M (non-small cell lung)
Outline: as §1

PC-3 (prostate) = system: PC-3 (prostate)
Outline: as §1

SF-295 (CNS) = system: SF-295 (CNS)
Outline: as §1

LOX IMVI (melanoma) = system: LOX IMVI (melanoma)
Outline: as §1

[5] = system: NCI-H23 (non-small cell lung)
Outline: as §1

SF-268 (CNS) = system: SF-268 (CNS)
Outline: as §1

BT-549 (breast) = system: BT-549 (breast)
Outline: as §1

TK-10 (renal) = system: TK-10 (renal)
Outline: as §1

HCT-15 (colon) = system: HCT-15 (colon)
Outline: as §1

[6] = system: NCI-H522 (non-small cell lung)
Outline: as §1

[7] = system: EKVX (non-small cell lung)
Outline: as §1

SK-MEL-5 (melanoma) = system: SK-MEL-5 (melanoma)
Outline: as §1

UACC-62 (melanoma) = system: UACC-62 (melanoma)
Outline: as §1

786-0 (renal) = system: 786-0 (renal)
Outline: as §1

MALME-3M (melanoma) = system: MALME-3M (melanoma)
Outline: as §1

[8] = system: K-562 (leukemia cell line)
Outline: as §1

KM12 (colon) = system: KM12 (colon)
Outline: as §1

[9] = 48 h exposure, SRB, read-out: GI50
[10] = read-out: pGI50 (-log of molar concentration causing 50% inhibition of net cell growth) (converted)
[11] = HT-29, 48 h exposure, SRB, read-out: GI50
[12] = HT-29, read-out: pGI50 (-log of molar concentration causing 50% inhibition of net cell growth) (converted)
[13] = PC-3, read-out: pGI50 (-log of molar concentration causing 50% inhibition of net cell growth) (converted)
[14] = one prostate cancer cell line (PC-3), exposure at least 48 hrs, read-out: GI50
[15] = Malme-3M, read-out: pGI50 (-log of molar concentration causing 50% inhibition of net cell growth) (converted)
[16] = MALME-3M, 48 h exposure, SRB, read-out: GI50
[17] = K562, 48 h exposure, SRB, read-out: GI50
[18] = K562, read-out: pGI50 (-log of molar concentration causing 50% inhibition of net cell growth) (converted)

COc1cc(/C=C/C(=O)c2cccc(-n3cc(-c4ccc(Cl)cc4)[nH]c3=O)c2)ccc1O [3f, 4-(4-chlorophenyl)-1-3-[(E)-3-(4-hydroxy-3-methoxyphenyl)-2-propenoyl]phenyl-2,3-dihydro-1H-2-imidazolone]
GI50 (MCF7 (breast); [9]): 2.3 µM
GI50 (MCF7 (breast); [10]): 2.29 µM
GI50 (MDA-MB-231/ATCC (breast); [9]): 3.87 µM
GI50 (MDA-MB-231/ATCC (breast); [10]): 3.89 µM
GI50 (UACC-257 (melanoma); [9]): 8.69 µM
GI50 (UACC-257 (melanoma); [10]): 8.71 µM
GI50 (SNB-75 (CNS); [9]): 2.75 µM
GI50 (SNB-75 (CNS); [10]): 2.75 µM
GI50 (OVCAR-4 (ovarian); [9]): 4.64 µM
GI50 (OVCAR-4 (ovarian); [10]): 4.68 µM
GI50 (HS 578T (breast); [9]): 4.67 µM
GI50 (HS 578T (breast); [10]): 4.68 µM
GI50 (CAKI-1 (renal); [9]): 2.64 µM
GI50 (CAKI-1 (renal); [10]): 2.63 µM
GI50 (HT29 (colon); [11]): 2.97 µM
GI50 (HT29 (colon); [12]): 2.95 µM
GI50 (HCT-116 (colon); [9]): 1.46 µM
GI50 (HCT-116 (colon); [10]): 1.45 µM
GI50 [1, 9]: 6.78 µM
GI50 [1, 10]: 6.76 µM
GI50 [2, 9]: 1.33 µM
GI50 [2, 10]: 1.32 µM
GI50 (OVCAR-8 (ovarian); [9]): 4.18 µM
GI50 (OVCAR-8 (ovarian); [10]): 4.17 µM
GI50 (SW-620 (colon); [9]): 2 µM
GI50 (SW-620 (colon); [10]): 2 µM
GI50 (SK-OV-3 (ovarian); [9]): 3.19 µM
GI50 (SK-OV-3 (ovarian); [10]): 3.16 µM
GI50 [3, 9]: 2.77 µM
GI50 [3, 10]: 2.75 µM
GI50 (A498 (renal); [9]): 2.82 µM
GI50 (A498 (renal); [10]): 2.82 µM
GI50 (MDA-MB-435 (melanoma); [9]): 2.25 µM
GI50 (MDA-MB-435 (melanoma); [10]): 2.24 µM
GI50 (OVCAR-3 (ovarian); [9]): 1.56 µM
GI50 (OVCAR-3 (ovarian); [10]): 1.55 µM
GI50 (TD-47D (breast); [9]): 3.09 µM
GI50 (TD-47D (breast); [10]): 3.09 µM
GI50 [4, 9]: 4.58 µM
GI50 [4, 10]: 4.57 µM
GI50 (PC-3 (prostate); [13]): 1.95 µM
GI50 (PC-3 (prostate); [14]): 1.95 µM
GI50 (SF-295 (CNS); [9]): 10.5 µM
GI50 (SF-295 (CNS); [10]): 10.5 µM
GI50 (LOX IMVI (melanoma); [9]): 1.63 µM
GI50 (LOX IMVI (melanoma); [10]): 1.62 µM
GI50 [5, 9]: 3.18 µM
GI50 [5, 10]: 3.16 µM
GI50 (SF-268 (CNS); [9]): 2.5 µM
GI50 (SF-268 (CNS); [10]): 2.51 µM
GI50 (BT-549 (breast); [9]): 2.52 µM
GI50 (BT-549 (breast); [10]): 2.51 µM
GI50 (TK-10 (renal); [9]): 4.67 µM
GI50 (TK-10 (renal); [10]): 4.68 µM
GI50 (HCT-15 (colon); [9]): 1.8 µM
GI50 (HCT-15 (colon); [10]): 1.82 µM
GI50 [6, 9]: 2.36 µM
GI50 [6, 10]: 2.34 µM
GI50 [7, 9]: 9.61 µM
GI50 [7, 10]: 9.55 µM
GI50 (SK-MEL-5 (melanoma); [9]): 1.8 µM
GI50 (SK-MEL-5 (melanoma); [10]): 1.82 µM
GI50 (UACC-62 (melanoma); [9]): 2.74 µM
GI50 (UACC-62 (melanoma); [10]): 2.75 µM
GI50 (786-0 (renal); [9]): 2.07 µM
GI50 (786-0 (renal); [10]): 2.09 µM
GI50 (MALME-3M (melanoma); [15]): 3.09 µM
GI50 (MALME-3M (melanoma); [16]): 3.06 µM
GI50 [8, 17]: 1.42 µM
GI50 [8, 18]: 1.41 µM
GI50 (KM12 (colon); [9]): 1.48 µM
GI50 (KM12 (colon); [10]): 1.48 µM

COc1cc(/C=C/C(=O)c2cccc(-n3cc(-c4ccccc4)[nH]c3=O)c2)ccc1O [3a, 1-3-[(E)-3-(4-hydroxy-3-methoxyphenyl)-2-propenoyl]phenyl-4-phenyl-2,3-dihydro-1H-2-imidazolone]
GI50 (MCF7 (breast); [9]): 1.55 µM
GI50 (MCF7 (breast); [10]): 1.55 µM
GI50 (MDA-MB-231/ATCC (breast); [9]): 3.36 µM
GI50 (MDA-MB-231/ATCC (breast); [10]): 3.39 µM
GI50 (UACC-257 (melanoma); [9]): 6.81 µM
GI50 (UACC-257 (melanoma); [10]): 6.76 µM
GI50 (SNB-75 (CNS); [9]): 3.9 µM
GI50 (SNB-75 (CNS); [10]): 3.89 µM
GI50 (OVCAR-4 (ovarian); [9]): 5.19 µM
GI50 (OVCAR-4 (ovarian); [10]): 5.25 µM
GI50 (HS 578T (breast); [9]): 4.16 µM
GI50 (HS 578T (breast); [10]): 4.17 µM
GI50 (CAKI-1 (renal); [9]): 2.19 µM
GI50 (CAKI-1 (renal); [10]): 2.19 µM
GI50 (HT29 (colon); [11]): 3.77 µM
GI50 (HT29 (colon); [12]): 3.8 µM
GI50 (HCT-116 (colon); [9]): 1.4 µM
GI50 (HCT-116 (colon); [10]): 1.41 µM
GI50 [1, 9]: 3.85 µM
GI50 [1, 10]: 3.89 µM
GI50 [2, 9]: 1.67 µM
GI50 [2, 10]: 1.66 µM
GI50 (OVCAR-8 (ovarian); [9]): 4.11 µM
GI50 (OVCAR-8 (ovarian); [10]): 4.07 µM
GI50 (SW-620 (colon); [9]): 2.29 µM
GI50 (SW-620 (colon); [10]): 2.29 µM
GI50 (SK-OV-3 (ovarian); [9]): 3.76 µM
GI50 (SK-OV-3 (ovarian); [10]): 3.8 µM
GI50 [3, 9]: 2.6 µM
GI50 [3, 10]: 2.57 µM
GI50 (A498 (renal); [9]): 1.68 µM
GI50 (A498 (renal); [10]): 1.7 µM
GI50 (MDA-MB-435 (melanoma); [9]): 2.14 µM
GI50 (MDA-MB-435 (melanoma); [10]): 2.14 µM
GI50 (OVCAR-3 (ovarian); [9]): 2.29 µM
GI50 (OVCAR-3 (ovarian); [10]): 2.29 µM
GI50 (TD-47D (breast); [9]): 2.7 µM
GI50 (TD-47D (breast); [10]): 2.69 µM
GI50 [4, 9]: 3.39 µM
GI50 [4, 10]: 3.39 µM
GI50 (PC-3 (prostate); [13]): 2.51 µM
GI50 (PC-3 (prostate); [14]): 2.52 µM
GI50 (SF-295 (CNS); [9]): 3.04 µM
GI50 (SF-295 (CNS); [10]): 3.02 µM
GI50 (LOX IMVI (melanoma); [9]): 1.88 µM
GI50 (LOX IMVI (melanoma); [10]): 1.86 µM
GI50 [5, 9]: 2.02 µM
GI50 [5, 10]: 2.04 µM
GI50 (SF-268 (CNS); [9]): 2.07 µM
GI50 (SF-268 (CNS); [10]): 2.09 µM
GI50 (BT-549 (breast); [9]): 2.78 µM
GI50 (BT-549 (breast); [10]): 2.75 µM
GI50 (TK-10 (renal); [9]): 5.29 µM
GI50 (TK-10 (renal); [10]): 5.25 µM
GI50 (HCT-15 (colon); [9]): 2.73 µM
GI50 (HCT-15 (colon); [10]): 2.75 µM
GI50 [6, 9]: 2.36 µM
GI50 [6, 10]: 2.34 µM
GI50 [7, 9]: 3.9 µM
GI50 [7, 10]: 3.89 µM
GI50 (SK-MEL-5 (melanoma); [9]): 1.59 µM
GI50 (SK-MEL-5 (melanoma); [10]): 1.58 µM
GI50 (UACC-62 (melanoma); [9]): 2.01 µM
GI50 (UACC-62 (melanoma); [10]): 2 µM
GI50 (786-0 (renal); [9]): 1.35 µM
GI50 (786-0 (renal); [10]): 1.35 µM
GI50 (MALME-3M (melanoma); [15]): 2.69 µM
GI50 (MALME-3M (melanoma); [16]): 2.67 µM
GI50 [8, 17]: 2.04 µM
GI50 [8, 18]: 2.04 µM
GI50 (KM12 (colon); [9]): 1.61 µM
GI50 (KM12 (colon); [10]): 1.62 µM
